Results taken from ChEMBL document CHEMBL1201862, “PubChem BioAssay data set” (2004).
Calls of active or inactive are those of the source.

Tests used:
[1] = biological target: T1, Histone-lysine N-methyltransferase NSD2 (Homo sapiens, UniProt O96028); type: biochemical
T1 sequence (O96028 whole entry): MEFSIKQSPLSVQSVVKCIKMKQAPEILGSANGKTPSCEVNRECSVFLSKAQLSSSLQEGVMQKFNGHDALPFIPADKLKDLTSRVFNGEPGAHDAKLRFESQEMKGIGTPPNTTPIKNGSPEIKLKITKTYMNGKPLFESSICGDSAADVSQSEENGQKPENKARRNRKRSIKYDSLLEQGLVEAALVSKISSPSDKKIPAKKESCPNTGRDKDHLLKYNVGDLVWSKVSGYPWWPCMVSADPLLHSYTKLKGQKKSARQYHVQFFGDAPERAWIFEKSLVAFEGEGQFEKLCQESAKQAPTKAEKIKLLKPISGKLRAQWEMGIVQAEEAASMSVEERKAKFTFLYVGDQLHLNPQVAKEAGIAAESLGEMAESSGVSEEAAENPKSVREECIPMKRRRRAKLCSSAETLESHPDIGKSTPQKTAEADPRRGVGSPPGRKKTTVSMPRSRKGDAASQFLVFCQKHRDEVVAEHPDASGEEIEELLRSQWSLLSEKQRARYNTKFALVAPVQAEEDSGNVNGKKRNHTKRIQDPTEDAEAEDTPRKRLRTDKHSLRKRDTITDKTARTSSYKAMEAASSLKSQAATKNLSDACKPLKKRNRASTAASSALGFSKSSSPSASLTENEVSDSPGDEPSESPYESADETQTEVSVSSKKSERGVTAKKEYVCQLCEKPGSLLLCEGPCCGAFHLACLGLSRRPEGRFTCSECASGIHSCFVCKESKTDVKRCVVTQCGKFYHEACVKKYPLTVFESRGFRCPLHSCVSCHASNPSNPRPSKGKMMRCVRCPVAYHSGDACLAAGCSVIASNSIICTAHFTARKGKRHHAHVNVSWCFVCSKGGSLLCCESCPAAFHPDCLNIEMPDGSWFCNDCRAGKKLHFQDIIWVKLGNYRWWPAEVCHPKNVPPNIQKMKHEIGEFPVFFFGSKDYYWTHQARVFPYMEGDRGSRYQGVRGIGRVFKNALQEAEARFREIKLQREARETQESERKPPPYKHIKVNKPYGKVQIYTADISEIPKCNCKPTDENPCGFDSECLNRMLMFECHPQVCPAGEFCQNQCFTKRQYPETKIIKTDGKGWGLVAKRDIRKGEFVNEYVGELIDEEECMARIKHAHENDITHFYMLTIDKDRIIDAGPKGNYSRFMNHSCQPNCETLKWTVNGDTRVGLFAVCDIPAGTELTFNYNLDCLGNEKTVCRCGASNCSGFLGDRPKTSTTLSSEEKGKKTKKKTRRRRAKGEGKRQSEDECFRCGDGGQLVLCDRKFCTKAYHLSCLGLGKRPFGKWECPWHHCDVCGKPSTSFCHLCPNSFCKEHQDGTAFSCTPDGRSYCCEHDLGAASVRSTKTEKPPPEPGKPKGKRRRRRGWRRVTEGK

[2] = biological target: T2, Sentrin-specific protease 8 (Homo sapiens, UniProt Q96LD8); type: functional
T2 sequence (Q96LD8 whole entry): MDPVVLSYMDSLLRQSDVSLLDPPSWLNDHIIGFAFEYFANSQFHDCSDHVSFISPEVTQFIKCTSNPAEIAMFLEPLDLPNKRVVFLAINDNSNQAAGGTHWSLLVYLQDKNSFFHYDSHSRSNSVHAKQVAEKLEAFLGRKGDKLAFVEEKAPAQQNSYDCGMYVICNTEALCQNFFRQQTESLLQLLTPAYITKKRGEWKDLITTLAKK

[3] = biological target: T2, Sentrin-specific protease 8; type: functional; remark: listed apart in the source
[4] = HGIII-sPLA2 enzyme inhibition potency – biochemical, QFRET, IC50, dose response (AID 743457);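 note: green fluorescence rise as the enzyme cleaves BODIPY PC-A2 in liposomes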
[5] = Trypanosoma cruzi growth suppression in host cells – NIH3T3 host cells, beta-gal luminescence, confirmation (AID 2044); type: functional, cell-based;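 note: intracellular parasites grown in NIH/3T3 mouse fibroblasts as host cells; luminescent beta-galactosidase reporter signal from transgenic T. cruzi replicating inside host cells; inhibitors lower the luminescence signal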
Vero = assay: cells; type: functional; settings: Chlorocebus sabaeus
[6] = tested on: Streptococcus sp. 'group A'; assay: Streptococcus pyogenes SK(-)GAS viability under kanamycin – luminescence, BacTiterGlo, confirmation, counter-screen for streptokinase expression inhibitor project, dose response (AID 1900); type: functional, organism-based
Streptococcus = assay: GAS UMAA2166 growth inhibition – luminescence, BacTiterGlo, counter-screen for streptokinase expression inhibitor project, dose response (AID 1915); type: functional, organism-based;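 note: potency for reduction of bacterial viability or growth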
[7] = biological target: T3, Methionyl-tRNA synthetase, putative (Trypanosoma brucei brucei, UniProt Q38C91); type: functional, Trypanosoma brucei brucei strain 927/4 GUTat10.1
T3 sequence (Q38C91 whole entry): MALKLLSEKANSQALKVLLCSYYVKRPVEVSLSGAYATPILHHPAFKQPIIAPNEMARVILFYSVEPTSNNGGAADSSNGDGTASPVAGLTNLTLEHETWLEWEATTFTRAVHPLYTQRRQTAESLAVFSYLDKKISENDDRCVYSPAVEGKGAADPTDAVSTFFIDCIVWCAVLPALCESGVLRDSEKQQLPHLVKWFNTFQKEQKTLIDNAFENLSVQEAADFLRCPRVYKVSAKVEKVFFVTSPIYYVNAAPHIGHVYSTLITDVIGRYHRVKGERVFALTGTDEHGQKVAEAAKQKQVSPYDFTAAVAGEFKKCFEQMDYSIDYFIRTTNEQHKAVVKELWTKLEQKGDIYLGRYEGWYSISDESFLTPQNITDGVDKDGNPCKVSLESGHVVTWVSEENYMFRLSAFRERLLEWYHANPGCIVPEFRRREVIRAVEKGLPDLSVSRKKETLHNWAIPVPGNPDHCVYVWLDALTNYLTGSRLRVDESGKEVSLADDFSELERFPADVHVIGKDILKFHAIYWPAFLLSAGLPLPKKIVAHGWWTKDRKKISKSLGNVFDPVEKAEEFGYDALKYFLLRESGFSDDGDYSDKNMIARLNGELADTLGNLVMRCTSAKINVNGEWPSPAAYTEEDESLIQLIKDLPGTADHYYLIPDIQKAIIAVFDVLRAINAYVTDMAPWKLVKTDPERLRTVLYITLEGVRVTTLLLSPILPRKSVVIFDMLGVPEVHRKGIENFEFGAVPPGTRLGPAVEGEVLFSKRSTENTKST

[8] = Counterscreen for inhibitors of Trypanosoma brucei methionyl tRNA synthetase (MetRS): Luminescence-based cell-based high throughput dose response assay to identify compounds that are cytotoxic to Jurkat human T lymphocyte cells.; type: functional
[9] = biological target: T3, Methionyl-tRNA synthetase, putative; type: functional, Trypanosoma brucei brucei strain 927/4 GUTat10.1; remark: listed apart in the source
Beta-galactosidase = Beta-galactosidase (Escherichia coli, UniProt Q8VNN2); assay: Dose response counterscreen for EBI2 assay utilizing the enzyme, b-galactosidase.; type: functional
Chain of Beta-galactosidase (Q8VNN2 whole entry): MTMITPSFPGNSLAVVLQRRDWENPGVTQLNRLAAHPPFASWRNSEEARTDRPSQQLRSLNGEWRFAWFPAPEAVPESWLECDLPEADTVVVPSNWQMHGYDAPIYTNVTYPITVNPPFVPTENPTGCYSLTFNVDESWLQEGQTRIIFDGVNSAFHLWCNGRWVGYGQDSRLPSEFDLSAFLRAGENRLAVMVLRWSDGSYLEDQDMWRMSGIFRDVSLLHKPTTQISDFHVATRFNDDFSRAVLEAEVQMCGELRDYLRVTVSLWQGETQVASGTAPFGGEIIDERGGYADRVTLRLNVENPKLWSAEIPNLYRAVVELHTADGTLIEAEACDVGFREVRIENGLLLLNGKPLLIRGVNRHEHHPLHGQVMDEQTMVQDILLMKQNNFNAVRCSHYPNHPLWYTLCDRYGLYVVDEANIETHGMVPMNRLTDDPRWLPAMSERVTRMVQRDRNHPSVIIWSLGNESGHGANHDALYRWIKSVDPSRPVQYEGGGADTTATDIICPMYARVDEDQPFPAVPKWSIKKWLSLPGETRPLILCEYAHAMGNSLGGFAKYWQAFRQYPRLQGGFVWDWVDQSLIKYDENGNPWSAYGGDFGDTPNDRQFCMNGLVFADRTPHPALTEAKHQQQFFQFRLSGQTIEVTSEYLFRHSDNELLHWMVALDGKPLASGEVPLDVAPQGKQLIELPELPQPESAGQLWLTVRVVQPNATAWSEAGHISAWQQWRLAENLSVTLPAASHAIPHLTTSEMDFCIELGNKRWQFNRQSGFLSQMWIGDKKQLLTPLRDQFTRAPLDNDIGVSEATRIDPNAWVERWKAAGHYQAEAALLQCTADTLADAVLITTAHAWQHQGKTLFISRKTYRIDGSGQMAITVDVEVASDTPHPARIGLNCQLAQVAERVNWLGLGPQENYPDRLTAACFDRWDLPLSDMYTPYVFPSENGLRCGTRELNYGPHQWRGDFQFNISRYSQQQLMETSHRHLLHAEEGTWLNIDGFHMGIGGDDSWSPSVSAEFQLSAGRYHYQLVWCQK

[10] = biological target: FAD-linked sulfhydryl oxidase ALR (Homo sapiens, UniProt P55789); assay: ALR-catalysed DTT oxidation blockers – biochemical, H2O2 detection, luminescence, cherry-pick, dose response (AID 493248)
Chain of FAD-linked sulfhydryl oxidase ALR (P55789 whole entry): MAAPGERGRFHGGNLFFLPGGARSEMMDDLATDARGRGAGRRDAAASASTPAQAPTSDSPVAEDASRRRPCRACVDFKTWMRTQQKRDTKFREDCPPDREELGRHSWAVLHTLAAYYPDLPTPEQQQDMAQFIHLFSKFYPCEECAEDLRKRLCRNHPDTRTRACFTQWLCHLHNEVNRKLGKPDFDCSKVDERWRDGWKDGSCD

[11] = viability of uninfected HEp-2 cells – cell-based, HTS, cytotoxicity control for RSV inhibitor project, dose response (AID 2410); type: functional; settings: human respiratory syncytial virus
[12] = biological target: T4, Corticotropin-releasing factor receptor 2/Corticotropin-releasing factor-binding protein (Homo sapiens, UniProt P24387+Q13324); assay: activators of CRF receptor 2 with binding protein – uHTS hits, confirmation (AID 602473); type: functional; settings: read-out: EC50_Mean
T4 sequence (Q13324 whole entry): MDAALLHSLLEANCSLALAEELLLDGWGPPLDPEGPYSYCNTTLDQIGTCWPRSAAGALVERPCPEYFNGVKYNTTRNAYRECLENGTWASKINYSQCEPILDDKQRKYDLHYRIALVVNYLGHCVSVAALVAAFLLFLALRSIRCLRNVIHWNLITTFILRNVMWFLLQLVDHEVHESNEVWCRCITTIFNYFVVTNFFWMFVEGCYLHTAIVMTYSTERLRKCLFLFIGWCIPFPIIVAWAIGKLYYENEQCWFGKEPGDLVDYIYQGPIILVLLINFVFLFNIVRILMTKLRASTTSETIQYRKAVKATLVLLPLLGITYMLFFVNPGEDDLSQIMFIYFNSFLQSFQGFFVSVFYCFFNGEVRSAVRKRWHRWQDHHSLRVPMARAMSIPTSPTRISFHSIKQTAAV
T4 sequence (P24387 whole entry): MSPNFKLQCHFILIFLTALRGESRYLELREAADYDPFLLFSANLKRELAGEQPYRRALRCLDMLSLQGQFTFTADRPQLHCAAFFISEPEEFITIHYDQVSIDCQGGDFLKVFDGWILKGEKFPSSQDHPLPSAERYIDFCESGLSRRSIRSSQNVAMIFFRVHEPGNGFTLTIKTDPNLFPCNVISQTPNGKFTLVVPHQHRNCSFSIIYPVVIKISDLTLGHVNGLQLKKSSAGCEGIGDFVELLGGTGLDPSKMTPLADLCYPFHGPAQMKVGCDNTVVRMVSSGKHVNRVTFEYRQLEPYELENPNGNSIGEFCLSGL

[13] = blockers of CRF-binding protein–CRF-R2 complex – cell-based, uHTS hits, 384-well, dose response (AID 651639); type: functional, Homo sapiens; settings: read-out: IC50_Mean
[14] = biological target: T4, Corticotropin-releasing factor receptor 2/Corticotropin-releasing factor-binding protein; assay: Dose Response confirmation of uHTS hits for small molecule antagonists of the CRF-binding protein and CRF-R2 receptor complex.; type: functional; settings: read-out: IC50_Mean
[15] = biological target: T5, Trace amine-associated receptor 1 (Homo sapiens, UniProt Q96RJ0); assay: Counterscreen for agonists of the human trace amine associated receptor 1 (hTAAR1): Fluorescence-based cell-based high throughput dose response assay to identify hTAAR1 agonist that also desensitize TAAR1 receptor response.; type: functional
T5 sequence (Q96RJ0 whole entry): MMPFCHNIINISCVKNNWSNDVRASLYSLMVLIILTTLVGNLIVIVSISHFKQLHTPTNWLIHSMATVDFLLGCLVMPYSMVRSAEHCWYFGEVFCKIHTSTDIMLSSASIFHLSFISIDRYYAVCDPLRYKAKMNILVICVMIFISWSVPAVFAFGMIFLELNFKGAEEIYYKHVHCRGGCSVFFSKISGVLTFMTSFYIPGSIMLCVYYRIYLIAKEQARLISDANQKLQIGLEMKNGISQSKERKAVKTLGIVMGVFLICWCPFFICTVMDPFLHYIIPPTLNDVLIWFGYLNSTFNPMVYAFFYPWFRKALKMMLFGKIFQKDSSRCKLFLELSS

[16] = biological target: T5, Trace amine-associated receptor 1; assay: Fluorescence-based cell-based high throughput dose response assay to identify agonists of the human trace amine associated receptor 1 (TAAR1).; type: functional
cells [17] = type: functional, cell-based
cells [18] = type: functional, cell-based; remark: listed apart in the source
Paired box protein Pax-8 = Paired box protein Pax-8 (Homo sapiens, UniProt Q06710); assay: PAX8 transcriptional activity inhibition in RMG-I – RMG-I cells, luciferase, cherry-pick, dose response (AID 687027); type: functional, cell-based;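 note: luciferase reporter driven by Pax8 target thyroperoxidase promoter measured by SteadyGlo luminescence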
Chain of Paired box protein Pax-8 (Q06710 whole entry): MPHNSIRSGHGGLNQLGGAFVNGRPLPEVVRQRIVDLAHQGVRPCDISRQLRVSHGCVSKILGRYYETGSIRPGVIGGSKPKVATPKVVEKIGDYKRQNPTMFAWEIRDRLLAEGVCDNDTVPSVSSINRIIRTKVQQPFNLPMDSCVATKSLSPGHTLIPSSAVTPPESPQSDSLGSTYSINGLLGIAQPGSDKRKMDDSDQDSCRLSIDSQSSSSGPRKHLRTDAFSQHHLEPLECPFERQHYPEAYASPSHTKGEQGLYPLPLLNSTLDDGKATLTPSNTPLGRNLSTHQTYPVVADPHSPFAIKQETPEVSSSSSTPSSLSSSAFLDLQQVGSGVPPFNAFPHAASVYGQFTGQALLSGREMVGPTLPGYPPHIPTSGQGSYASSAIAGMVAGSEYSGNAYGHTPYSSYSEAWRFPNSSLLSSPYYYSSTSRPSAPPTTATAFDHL

[19] = OVCAR-3 cell viability loss – plate reader, dry powder samples, PAX8 inhibitor project, dose response (AID 743044); type: functional, cell-based
[20] = IGROV1 cell killing – plate reader, dry powder samples, PAX8 inhibitor project, dose response (AID 743043); type: functional, cell-based; settings: IGROV-1
[21] = A2780 cell killing – plate reader, dry powder samples, cytotoxicity control, dose response (AID 743046); type: functional, cell-based

CN1CCN(c2ncnc3c2cnn3C)CC1
AC50 [1]: 13.3 µM (active)

CC(NC(=O)COC(=O)c1ccc([N+](=O)[O-])s1)c1ccccc1 (stereo not drawn)
IC50 [2]: 6.55 µM (active) | IC50 [3]: 17.1 µM (active)

COc1cc(C(=O)NNC(=S)NC(=O)c2ccc(Cl)cc2)cc(OC)c1OC
IC50 [4]: > 122 µM (inactive) | EC50 [5]: 0.756 µM (active) | CC50 (Vero): > 25 µM (active) | EC50 [6]: 0.822 µM (active) | EC50 (Streptococcus): 2.17 µM (active)

Cc1cccc(OCCCC(=O)Nc2ccc(Br)cc2)c1
IC50 [7]: 32 µM (inactive) | IC50 [8]: 83.3 µM (inactive) | IC50 [9]: 119 µM (inactive)

Cc1ccc(Nc2ccc(C(=O)NCCc3ccccc3)cn2)cc1
IC50 (Beta-galactosidase): > 80 µM (inactive)

Cc1ccc(CNC(=O)C2CCN(S(=O)(=O)c3ccc4c(c3)OCCCO4)CC2)cc1
IC50 (Beta-galactosidase): > 80 µM (inactive)

CCN(CC)C1CCN(c2nc3nonc3nc2NCCOC)C1 (stereo not drawn)
AC50 [1]: 14.4 µM (active)

O=C(c1ccc(Cl)cc1)N1CCN(S(=O)(=O)/C=C/c2ccccc2)CC1
IC50 (Beta-galactosidase): > 80 µM (inactive)

COc1ccc(-c2nnc(SC)nc2-c2ccc(OC)c([N+](=O)[O-])c2)cc1[N+](=O)[O-]
IC50 [2]: > 100 µM (inactive) | IC50 [3]: 46.9 µM (active)

Cc1nn(-c2ccccc2)c(C)c1/C=N/n1c(S)nnc1-c1ccccc1Br
AC50 [10]: 3.44 µM (active) | CC50 [11]: 23.2 µM (active) | EC50 [12]: > 53 µM (inactive) | IC50 [13]: 10.9 µM (active) | IC50 [14]: 3.92 µM (active)

CN(CCc1ccccc1)C(=O)CC1C(=O)NCCN1Cc1ccccn1 (stereo not drawn)
IC50 [15]: 9.93 µM (active) | EC50 [16]: 3.05 µM (active) | EC50 (cells [17]): > 29.9 µM (inactive) | IC50 (cells [18]): > 29.9 µM (inactive)

COc1ccccc1S(=O)(=O)N(C)C[C@H]1Oc2cc(C#CCC3CCCC3)ccc2S(=O)(=O)N([C@@H](C)CO)C[C@@H]1C
AC50 (Paired box protein Pax-8): 7.59 µM (active) | AC50 [19]: 17.1 µM (active) | AC50 [20]: 62.2 µM (active) | AC50 [21]: 52.2 µM (active)

CC(C)[C@H](NS(=O)(=O)c1ccc(F)cc1F)C(=O)N1CCC[C@H]1C(=O)NCCc1ccccc1Cl
IC50 [15]: 4.65 µM (active) | EC50 [16]: 2.89 µM (active) | EC50 (cells [17]): > 29.9 µM (inactive) | IC50 (cells [18]): > 29.9 µM (inactive)

CCOC(=O)N[C@@H](Cc1cccnc1)C(=O)N1CCC[C@H]1C(=O)NCCc1ccccc1Cl
IC50 [15]: 8.93 µM (active) | EC50 [16]: 3.16 µM (active) | EC50 (cells [17]): > 29.9 µM (inactive) | IC50 (cells [18]): > 29.9 µM (inactive)
